In US9302999B2, “Substituted triazoles as herbicides” (E. I. DU PONT DE NEMOURS AND COMPANY, priority 2012, dated 2016):
Like-named read-outs stand apart in the source and are kept apart here.

Experiments:
Format in all cases: in vivo
[1] = test system: cocklebur (common cocklebur, Xanthium strumarium); experiment: Test C pre-/postemergence: cocklebur
From the text: (§1) Seeds of plant species selected from blackgrass (Alopecurus myosuroides), bromegrass, downy (downy bromegrass, Bromus tectorum), foxtail, green (green foxtail, Setaria viridis), ryegrass, Italian (Italian ryegrass, Lolium multiflorum), winter wheat (Triticum aestivum), wild oat (Avena fatua), galium (catchweed bedstraw, Galium aparine), bermudagrass (Cynodon dactylon), surinam grass (Brachiaria decumbens), cocklebur (common cocklebur, Xanthium strumarium), corn (Zea mays), large crabgrass (Digitaria sanguinalis), woolly cupgrass (Eriochloa villosa), foxtail, giant (giant foxtail, Setaria faberii), goosegrass (Eleusine indica), johnsongrass (Sorghum halepense), kochia (Kochia scoparia), lambsquarters (Chenopodium album), morningglory (Ipomoea coccinea), nightshade (eastern black nightshade, Solanum ptycanthum), nutsedge, yellow (yellow nutsedge, Cyperus esculentus), pigweed (Amaranthus retroflexus), ragweed (common ragweed, Ambrosia elation), soybean (Glycine max), common (oilseed) sunflower (Helianthus annuus), Russian thistle (Salsola kali) and velvetleaf (Abutilon theophrasti) were planted into a blend of loam soil and sand and treated preemergence with test chemicals formulated in a non-phytotoxic solvent mixture which included a surfactant.
(§2) At the same time, plants selected from these crop and weed species and also barley (winter barley, Hordeum vulgare), canarygrass (Phalaris minor), chickweed (common chickweed, Stellaria media) windgrass (Apera spica-venti) and deadnettle (henbit deadnettle, Lamium amplexicaule) were planted in pots containing Redi-Earth® planting medium (Scotts Company, 14111 Scottslawn Road, Marysville, Ohio 43041) comprising spaghnum peat moss, vermiculite, wetting agent and starter nutrients and treated with postemergence applications of test chemicals formulated in the same manner. Plants ranged in height from 2 to 18 cm (1- to 4-leaf stage) for postemergence treatments.
(§3) Treated plants and controls were maintained in a greenhouse for 13 to 15 days, after which time all species were compared to controls and visually evaluated. Plant response ratings, summarized in Table C, are based on a scale of 0 to 100 where 0 is no effect and 100 is complete control. A dash (-) response means no test result.

[2] = test system: windgrass (Apera spica-venti); experiment: Test C postemergence: windgrass
From the text: as §2, §3

[3] = test system: surinam grass (Brachiaria decumbens); experiment: Test C pre-/postemergence: surinam grass
From the text: as §1, §2, §3

[4] = test system: foxtail, green (green foxtail, Setaria viridis); experiment: Test C pre-/postemergence: foxtail, green
From the text: as §1, §2, §3

[5] = test system: bromegrass, downy (downy bromegrass, Bromus tectorum); experiment: Test C pre-/postemergence: bromegrass, downy
From the text: as §1, §2, §3

[6] = test system: ducksalad (Heteranthera limosa); experiment: Test C flooded paddy test: ducksalad; conditions: scale 0 to 100 (0 no effect, 100 complete control); for pest or weed control at 125 g/ha / pest or weed control at 250 g/ha / pest or weed control at 31 g/ha / pest or weed control at 62 g/ha: Heteranthera limosa, read-out: Plant response rating, Ducksalad
In short: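 2-leaf stage plants; pots flooded 3 cm above soil; compound applied into paddy water, depth maintained. Greenhouse 13–15 d. Visual rating vs controls, 0–100 (0 = no effect, 100 = complete control); dash = no result.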

[7] = test system: barley, spring (spring barley, Hordeum vulgare); experiment: Test D pre-/postemergence: barley, spring
From the text: (§4) Seeds of plant species selected from bluegrass (annual bluegrass, Poa annua), blackgrass (Alopecurus myosuroides), canarygrass (Phalaris minor), chickweed (common chickweed, Stellaria media), galium (catchweed bedstraw, Galium aparine), bromegrass, downy (downy bromegrass, Bromus tectorum), field poppy (Papaver rhoeas), field violet (Viola arvensis), foxtail, green (green foxtail, Setaria viridis), deadnettle (henbit deadnettle, Lamium amplexicaule), ryegrass, Italian (Italian ryegrass, Lolium multiflorum), kochia (Kochia scoparia), lambsquarters (Chenopodium album), oilseed rape (Brassica napus), pigweed (Amaranthus retroflexus), Russian thistle (Salsola iberica), chamomile (scentless chamomile, Matricaria inodora), speedwell (bird's-eye speedwell, Veronica persica), barley, spring (spring barley, Hordeum vulgare), wheat, spring (spring wheat, Triticum aestivum), buckwheat, wild (wild buckwheat, Polygonum convolvulus), mustard, wild (wild mustard, Sinapis arvensis), oat, wild (wild oat, Avena fatua), radish, wild (wild radish, Raphanus raphanistrum), windgrass (Apera spica-venti), barley, winter (winter barley, Hordeum vulgare), and wheat, winter (winter wheat, Triticum aestivum) were planted into a silt loam soil and treated preemergence with test chemicals formulated in a non-phytotoxic solvent mixture which included a surfactant. At the same time, these same crop and weed species were planted in pots containing the planting medium comprising spaghnum peat moss, vermiculite, wetting agent and starter nutrients and treated with postemergence applications of the test chemicals formulated in the same manner. Plants ranged in height from 2 to 18 cm (1- to 4-leaf stage).
as §3, with “controlled growth environment” for “greenhouse”, “14” for “13”, “21 days” for “15 days,”, “D,” for “C,”

[8] = test system: field violet (Viola arvensis); experiment: Test D pre-/postemergence: field violet
From the text: as §4
as §3, with “controlled growth environment” for “greenhouse”, “14” for “13”, “21 days” for “15 days,”, “D,” for “C,”

[9] = test system: wheat, winter (winter wheat, Triticum aestivum); experiment: Test D pre-/postemergence: wheat, winter
From the text: as §4
as §3, with “controlled growth environment” for “greenhouse”, “14” for “13”, “21 days” for “15 days,”, “D,” for “C,”

[10] = Postemergence, 16 g ai/ha, scale 0 to 100, 0 no effect, 100 complete control
[11] = Postemergence, 31 g ai/ha, scale 0 to 100 (0 no effect, 100 complete control)
[12] = Postemergence, 62 g ai/ha, scale 0 to 100 (0 no effect, 100 complete control)
[13] = Postemergence, 125 g ai/ha, scale 0 to 100, 0 no effect, 100 complete control
[14] = 31 g ai/ha, scale 0 to 100 (0 no effect, 100 complete control)
[15] = 62 g ai/ha, scale 0 to 100 (0 no effect, 100 complete control)
[16] = 125 g ai/ha, scale 0 to 100, 0 no effect, 100 complete control
[17] = Flood (flooded paddy test), 125 g ai/ha, visual rating after 13 to 15 days
[18] = Flood (flooded paddy test), 250 g ai/ha, visual rating after 13 to 15 days
[19] = Postemergence, 16 g ai/ha, scale 0 to 100
[20] = Preemergence, 16 g ai/ha, scale 0 to 100 (0 no effect, 100 complete control)
[21] = Preemergence, 31 g ai/ha, scale 0 to 100 (0 no effect, 100 complete control)
[22] = Preemergence, 62 g ai/ha, scale 0 to 100
[23] = Preemergence, 125 g ai/ha, scale 0 to 100
[24] = Preemergence, 31 g ai/ha, scale of 0 to 100, 0 is no effect, 100 is complete control
[25] = Preemergence, 62 g ai/ha, scale of 0 to 100, 0 is no effect, 100 is complete control
[26] = Preemergence, 125 g ai/ha, scale 0 to 100, 0 no effect, 100 complete control
[27] = Preemergence, 250 g ai/ha, scale 0 to 100, 0 no effect, 100 complete control
[28] = Postemergence, 250 g ai/ha, scale 0 to 100

SMILES: Cc1nn(-c2ccc(C(F)(F)F)cc2)nc1Cc1cccc(C(F)(F)F)c1 [Compound 124]
- Plant response rating, Cocklebur [1, 10]: 10
- Plant response rating, Cocklebur [1, 11]: 15
- Plant response rating, Cocklebur [1, 12]: 20
- Plant response rating, Cocklebur [1, 13]: 55
- Plant response rating, Windgrass ([2]; 16 g ai/ha, scale 0 to 100, 0 no effect, 100 complete control): 50
- Plant response rating, Windgrass [2, 14]: 80
- Plant response rating, Windgrass [2, 15]: 95
- Plant response rating, Windgrass [2, 16]: 98
- Plant response rating, Surinam Grass [3, 10]: 5
- Plant response rating, Surinam Grass [3, 11]: 10
- Plant response rating, Surinam Grass [3, 12]: 15
- Plant response rating, Surinam Grass [3, 13]: 20
- Plant response rating, Foxtail, Green [4, 10]: 65
- Plant response rating, Foxtail, Green [4, 11]: 70
- Plant response rating, Foxtail, Green [4, 12]: 90
- Plant response rating, Foxtail, Green [4, 13]: 95
- Plant response rating, Bromegrass, Downy [5, 10]: 0
- Plant response rating, Bromegrass, Downy [5, 11]: 0
- Plant response rating, Bromegrass, Downy [5, 12]: 0
- Plant response rating, Bromegrass, Downy [5, 13]: 0
- Plant response rating, Ducksalad [6, 17]: 90
- Plant response rating, Ducksalad [6, 18]: 90
- Plant response rating, Ducksalad ([6]; Flood, 31 g ai/ha): 20
- Plant response rating, Ducksalad ([6]; Flood, 62 g ai/ha): 90

SMILES: CCc1nn(-c2ccc(C(F)(F)F)cc2)nc1Oc1cccc(OC(F)(F)F)c1 [Compound 125, 4-ethyl-5-[3-(trifluoromethoxy)phenoxy]-2-[4-(trifluoromethyl)phenyl]-2H-1,2,3-triazole]
- pest or weed control at 125 g/ha [6, 17]: 75%
- pest or weed control at 250 g/ha [6, 18]: 90%
- pest or weed control at 31 g/ha ([6]; Flood, 31 g ai/ha): 0%
- pest or weed control at 62 g/ha ([6]; Flood, 62 g ai/ha): 0%

SMILES: Cc1nn(-c2ccc(F)c(C(F)(F)F)c2)nc1Oc1ccnc(C(F)(F)F)c1 [Compound 147]
- Plant response rating: Barley, Spring [7, 11]: 15
- Plant response rating: Barley, Spring [7, 12]: 20
- Plant response rating: Barley, Spring [7, 13]: 25
- Plant response rating, Barley, Spring [7, 19]: 15
- Plant response rating, Barley, Spring [7, 20]: 0
- Plant response rating, Barley, Spring [7, 21]: 0
- Plant response rating, Barley, Spring [7, 22]: 5
- Plant response rating, Barley, Spring [7, 23]: 10
- Plant response rating: Field Violet [8, 11]: 95
- Plant response rating: Field Violet [8, 12]: 100
- Plant response rating: Field Violet [8, 13]: 90
- Plant response rating, Field Violet [8, 19]: 95
- Plant response rating, Field Violet [8, 20]: 75
- Plant response rating, Field Violet [8, 21]: 100
- Plant response rating, Field Violet [8, 22]: 95
- Plant response rating, Field Violet [8, 23]: 100
- Plant response rating, Cocklebur [1, 24]: 35
- Plant response rating, Surinam Grass [3, 24]: 55
- Plant response rating, Surinam Grass [3, 25]: 80
- Plant response rating, Surinam Grass [3, 26]: 95
- Plant response rating, Surinam Grass [3, 27]: 95
- Plant response rating, Foxtail, Green [4, 24]: 95
- Plant response rating, Foxtail, Green [4, 25]: 95
- Plant response rating, Foxtail, Green [4, 26]: 95
- Plant response rating, Foxtail, Green [4, 27]: 95
- Plant response rating, Bromegrass, Downy [5, 24]: 10
- Plant response rating, Bromegrass, Downy [5, 25]: 45
- Plant response rating, Bromegrass, Downy [5, 26]: 85
- Plant response rating, Bromegrass, Downy [5, 27]: 90
- Plant response rating: Wheat, Winter [9, 11]: 15
- Plant response rating: Wheat, Winter [9, 12]: 15
- Plant response rating: Wheat, Winter [9, 13]: 20
- Plant response rating, Wheat, Winter [9, 19]: 10
- Plant response rating, Wheat, Winter [9, 20]: 0
- Plant response rating, Wheat, Winter [9, 21]: 0
- Plant response rating, Wheat, Winter [9, 22]: 0
- Plant response rating, Wheat, Winter [9, 23]: 5

SMILES: COc1nn(-c2ccc(C(F)(F)F)cc2)nc1Cn1ccc(C(F)(F)F)n1 [Compound 17, 4-methoxy-2-[4-(trifluoromethyl)phenyl]-5-[[3-(trifluoromethyl)-1H-pyrazol-1-yl]methyl]-2H-1,2,3-triazole]
- pest or weed control at 62 g/ha ([6]; Flood (flooded paddy test), 62 g ai/ha, visual rating after 13 to 15 days): 0%
- pest or weed control at 125 g/ha [6, 17]: 0%
- pest or weed control at 250 g/ha [6, 18]: 20%
- pest or weed control at 31 g/ha ([6]; Flood, 31 g ai/ha): 0%

SMILES: Fc1ccc(-n2nc(Cc3ccnc(C(F)(F)F)c3)c(OCC(F)(F)F)n2)cc1 [Compound 142]
- Plant response rating, Cocklebur [1, 12]: 30
- Plant response rating, Cocklebur [1, 13]: 40
- Plant response rating, Cocklebur [1, 28]: 50
- Plant response rating, Cocklebur [1, 24]: 0
- Plant response rating, Cocklebur [1, 25]: 10
- Plant response rating, Cocklebur [1, 26]: 10
- Plant response rating, Windgrass [2, 14]: 80
- Plant response rating, Windgrass [2, 15]: 80
- Plant response rating, Windgrass [2, 16]: 85
- Plant response rating, Windgrass ([2]; 250 g ai/ha, scale 0 to 100): 95
- Plant response rating, Surinam Grass [3, 11]: 40
- Plant response rating, Surinam Grass [3, 12]: 40
- Plant response rating, Surinam Grass [3, 13]: 45
- Plant response rating, Surinam Grass [3, 28]: 50
- Plant response rating, Surinam Grass [3, 24]: 60
- Plant response rating, Surinam Grass [3, 25]: 75
- Plant response rating, Surinam Grass [3, 26]: 98
- Plant response rating, Surinam Grass [3, 27]: 98
- Plant response rating, Foxtail, Green [4, 11]: 100
- Plant response rating, Foxtail, Green [4, 12]: 100
- Plant response rating, Foxtail, Green [4, 13]: 100
- Plant response rating, Foxtail, Green [4, 28]: 100
- Plant response rating, Foxtail, Green [4, 24]: 90
- Plant response rating, Foxtail, Green [4, 25]: 90
- Plant response rating, Foxtail, Green [4, 26]: 90
- Plant response rating, Foxtail, Green [4, 27]: 90
- Plant response rating, Bromegrass, Downy [5, 11]: 25
- Plant response rating, Bromegrass, Downy [5, 12]: 45
- Plant response rating, Bromegrass, Downy [5, 13]: 45
- Plant response rating, Bromegrass, Downy [5, 28]: 50
- Plant response rating, Bromegrass, Downy [5, 24]: 20
- Plant response rating, Bromegrass, Downy [5, 25]: 60
- Plant response rating, Bromegrass, Downy [5, 26]: 90
- Plant response rating, Bromegrass, Downy [5, 27]: 90
